Experimental data as given in patent publication US20250129123A1, “BIOMIMETIC PEPTIDES AND THEIR USE IN BONE REGENERATION” (SILK BIOMATERIALS S.R.L., priority 2021, published 2025).
Ends that are not written are not given here.

How the values were obtained:
[1] = system: human mesenchymal stem cells (MSCs); assay: Mineralization test (von Kossa staining) of fibroin foams incubated with human mesenchymal stem cells; format: cell-based; details: presence of MSC (+MSC), complete medium, 7 days, decellularized foams
Procedure: (§1) Human mesenchymal stem cells (MSCs) were purchased from Lonza and cultured in Dulbecco's Modified Eagle's Medium (DMEM), supplemented with 10% MSC Stimulatory Supplement, 100 U/mL penicillin-streptomycin and non-essential amino acids at 37° C. in a fully humidified atmosphere at 5% CO2. The fibroin foams were placed in a 96-well plate, immersed in 70% ethanol for 30 minutes, washed in phosphate buffered saline (PBS) three times, immersed in 100 U/mL penicillin-streptomycin overnight and washed three times in PBS. MSC (10^4/50 μL) were seeded by pipetting onto different points of the foam to improve the distribution of the cells within the foam and allowed to adhere for 30 minutes. Subsequently, 150 μL of complete medium were added to each well. As a negative control, the fibroin foams were kept in the complete cell-free medium. The medium was changed every two days.
(§2) The foams were washed twice with PBS (not containing magnesium/calcium ions) before cell lysis and protein extraction. Cell lysis was performed using the HEPES buffer (50 mM HEPES, pH 7.4, 150 mM NaCl, 10% (v/v) glycerol, 1% (v/v) Triton X-100, 1.5 mM MgCl2, 1 mM EGTA) containing 100 mM NaF, 1 mM NaVO4, 1 μg/mL leupeptin, and 1 μg/mL aprotinin. After 30 minutes on ice, the extracts were centrifuged for 10 minutes at 13,000 g as cell lysate and stored at −20° C. The remaining deposited matrix was washed twice with PBS (not containing magnesium/calcium ions). To fix the matrix on the fibroin foams […] was added in ultrapure water at room temperature for 10 minutes and then two washes with ultrapure water were performed. […]
(§3) The human mesenchymal stem cells (MSCs) were cultured for 7 days in the fibroin foams functionalized with the biomimetic peptides, using a non-functionalized fibroin foam as a reference. […] The extent of calcium deposit was studied by means of von Kossa staining and quantified by image analysis with ImageJ software. […] The threshold was adjusted manually, and the percentage area covered by the signal above the threshold was measured.

[2] = Mineralization test (von Kossa staining) of fibroin foams in complete medium in the absence of cells; details: absence of MSC (NO MSC), 7 days
Procedure: as §1, §2, §3

[3] = SEM/EDX chemical characterization of fibroin foams incubated in SBF; details: fibroin foam functionalized with peptide, 14 days, aggregates "Object 10437"
Procedure: […]
The fibroin foam samples were analysed in SEM/EDX in order to morphologically and compositionally identify the mineral formations constituted by calcium and phosphate salts.

Sequence: GPYVAHGGYSGYEY
- amount of deposited calcium (percentage area covered by von Kossa staining) versus non-functionalized foam [1]: always higher
- amount of deposited calcium (percentage area covered by von Kossa staining) versus non-functionalized foam [2]: always higher

Sequence: SGYEYAWSSESDF
- amount of deposited calcium (percentage area covered by von Kossa staining) versus non-functionalized foam [1]: always higher
- amount of deposited calcium (percentage area covered by von Kossa staining) versus non-functionalized foam [2]: always higher

Sequence: VNGGYSGYEYAW
- amount of deposited calcium (percentage area covered by von Kossa staining) versus non-functionalized foam [1]: always higher
- amount of deposited calcium (percentage area covered by von Kossa staining) versus non-functionalized foam [2]: always higher
- chemical composition of the crystalline aggregates (SEM/EDX) [3]: intense signals of calcium (Ca) and phosphorus (P)
